Reference: US10435361B2, “Kinase inhibitors” (Topivert Pharma Limited, priority 2013, dated 2019)

Test system: PBMCs
Assay: LPS-induced TNFα/IL-8 release in PBMC cells
Format: cell-based
Conditions: Homo sapiens, assay (b), read-out: IC50 Values for Inhibition of Cytokine Release PBMCs IL-8
Procedure: Peripheral blood mononuclear cells (PBMCs) from healthy subjects are separated from whole blood using a density gradient (Lymphoprep, Axis-Shield Healthcare). The PBMCs are seeded in 96 well plates and treated with compounds at the desired concentration for 2 hours before addition of 1 ng/mL LPS (Escherichia Coli 0111:B4 from Sigma Aldrich) for 24 hours under normal tissue culture conditions (37° C., 5% CO2). The supernatant is harvested for determination of IL-8 and TNFα concentrations by sandwich ELISA (Duo-set, R&D systems) and read on the fluorescence microplate reader (Varioskan® Flash, ThermoFisher Scientific).

SMILES | IC50 [nM]
COc1cc(Nc2cc(Oc3ccc(NC(=O)Nc4cc(C(C)(C)C)cc(NS(C)(=O)=O)c4OC)c4ccccc34)ccn2)cc(C(=O)NCCOCCOCCO)c1 [85(r), 3-[[4-[[4-[[5-tert-Butyl-3-(methanesulfonamido)-2-methoxyphenyl]-carbamoylamino]-1-naphthyl]oxy]-2-pyridyl]amino]-N-[2-[2-(2-hydroxyethoxy)ethoxy]-ethyl]-5-methoxy-benzamide] | 0.6
COCCOCCOCCOCCNC(=O)c1cc(Nc2cc(Oc3ccc(NC(=O)Nc4cc(C(C)(C)C)cc(NS(C)(=O)=O)c4OC)c4ccccc34)ccn2)cc(OC)c1 [85(v), 3-[[4-[[4-[[5-tert-Butyl-3-(methanesulfonamido)-2-methoxyphenyl]-carbamoylamino]-1-naphthyl]oxy]-2-pyridyl]amino]-5-methoxy-N-[2-[2-[2-(2-methoxyethoxy)ethoxy]ethoxy]-ethyl]benzamide] | 0.4
COc1cc(Nc2cc(Oc3ccc(NC(=O)Nc4cc(C(C)(C)C)cc(NS(C)(=O)=O)c4OC)c4ccccc34)ccn2)cc(C(=O)NCCN2CCC(O)CC2)c1 [85(w), 3-[[4-[[4-[[5-tert-Butyl-3-(methanesulfonamido)-2-methoxyphenyl]-carbamoylamino]-1-naphthyl]oxy]-2-pyridyl]amino]-N-[2-(4-hydroxy-1-piperidyl)ethyl]-5-methoxybenzamide] | 2.9
COCCOCCOCC[S+]([O-])c1cc(Nc2cc(Oc3ccc(NC(=O)Nc4cc(C(C)(C)C)cc(NS(C)(=O)=O)c4OC)c4ccccc34)ccn2)cc(OC)c1 (centres unmarked) [85(x), 1-[5-tert-Butyl-3-(methanesulfonamido)-2-methoxyphenyl]-3-[4-[2-[3-methoxy-5-[2-[2-(2-methoxyethoxy)ethoxy]ethylsulfinyl]anilino]pyridin-4-yl]oxy-1-naphthyl]urea] | 0.9
COCCOCCOCCNC(=O)c1cc(Nc2nccc(Oc3ccc(NC(=O)Nc4cc(C(C)(C)C)cc(NS(C)(=O)=O)c4OC)c4ccccc34)n2)cc(OC)c1 [Example 7, 3-((4-((4-(3-(5-(tert-Butyl)-2-methoxy-3-(methylsulfonamido)phenyl)ureido)naphthalen-1-yl)oxy)pyrimidin-2-yl)amino)-5-methoxy-N-(2-(2-(2-methoxyethoxy)ethoxy)ethyl)-benzamide] | 1.1
COCCOCCOCCOc1cc(Nc2nccc(Oc3ccc(NC(=O)Nc4cc(C(C)(C)C)ccc4OC)c4ccccc34)n2)cc(OC)c1 [Example 8, 1-(5-(tert-Butyl)-2-methoxyphenyl)-3-(4-((2-((3-methoxy-5-(2-(2-(2-methoxyethoxy)ethoxy)-ethoxy)phenyl)amino)pyrimidin-4-yl)oxy)naphthalen-1-yl)urea] | 28.1
C#Cc1cc(Nc2nccc(Oc3ccc(NC(=O)Nc4cc(C(C)(C)C)cc(C(=O)NC)c4OC)c4ccccc34)n2)cc(C(=O)NCCN2CCOCC2)c1 [Example 9, 5-(tert-Butyl)-3-(3-(4-((2-((3-ethynyl-5-((2-morpholinoethyl)carbamoyl)phenyl)amino)-pyrimidin-4-yl)oxy)naphthalen-1-yl)ureido)-2-methoxy-N-methylbenzamide] | 1.2
COCCOCCOCCOc1cc(Nc2nccc(Oc3ccc(NC(=O)Nc4cc(C(C)(C)C)cc(C(=O)N(C)C)c4OC)c4ccccc34)n2)cc(OC)c1 [Example 19, 5-(tert-Butyl)-2-methoxy-3-(3-(4-((2-((3-methoxy-5-(2-(2-(2-methoxyethoxy)ethoxy)-ethoxy)phenyl)amino)pyrimidin-4-yl)oxy)naphthalen-1-yl)ureido)-N,N-dimethylbenzamide] | 8.7
COCCOCCOCCOc1cc(Nc2nccc(Oc3ccc(NC(=O)Nc4cc(C(C)(C)C)cc(C(=O)O)c4OC)c4ccccc34)n2)cc(OC)c1 [Example 21, 5-(tert-Butyl)-2-methoxy-3-(3-(4-((2-((3-methoxy-5-(2-(2-(2-methoxyethoxy)ethoxy)-ethoxy)phenyl)amino)pyrimidin-4-yl)oxy)naphthalen-1-yl)ureido)benzoic acid] | 34.4
COCCOCCOCCOc1cc(Nc2nccc(Oc3ccc(NC(=O)Nc4cc(C(C)(C)C)cc(C#N)c4OC)c4ccccc34)n2)cc(OC)c1 [Example 22, 1-(5-(tert-Butyl)-3-cyano-2-methoxyphenyl)-3-(4-((2-((3-methoxy-5-(2-(2-(2-methoxy-ethoxy)ethoxy)ethoxy)phenyl)amino)pyrimidin-4-yl)oxy)naphthalen-1-yl)urea] | 16.9
COCCOCCOCCOc1cc(Nc2nccc(Oc3ccc(NC(=O)Nc4cc(C(C)(C)C)cc(N)c4OC)c4ccccc34)n2)cc(OC)c1 [Example 25, 1-(3-Amino-5-(tert-butyl)-2-methoxyphenyl)-3-(4-((2-((3-methoxy-5-(2-(2-(2-methoxy-ethoxy)ethoxy)ethoxy)phenyl)amino)pyrimidin-4-yl)oxy)naphthalen-1-yl)urea] | 7
COc1cc(Nc2nccc(Oc3ccc(NC(=O)Nc4cc(C(C)(C)C)cc(NS(C)(=O)=O)c4OC)c4ccccc34)n2)cc(C(=O)NCCOCCOCCC(=O)O)c1 [Example 26, 3-(2-(2-(3-((4-((4-(3-(5-(tert-Butyl)-2-methoxy-3-(methylsulfonamido)phenyl)ureido)-naphthalen-1-yl)oxy)pyrimidin-2-yl)amino)-5-methoxybenzamido)ethoxy)ethoxy)-propanoic acid] | 21.7
COCCOCCOCCOc1cc(Nc2nccc(Oc3ccc(NC(=O)Nc4cc(C(C)(C)C)cc(Nc5ncccn5)c4OC)c4ccccc34)n2)cc(OC)c1 [Example 28, 1-(5-(tert-Butyl)-2-methoxy-3-(pyrimidin-2-ylamino)phenyl)-3-(4-((2-((3-methoxy-5-(2-(2-(2-methoxyethoxy)ethoxy)ethoxy)phenyl)amino)pyrimidin-4-yl)oxy)naphthalen-1-yl)urea] | 11.9
COc1cc(Nc2nccc(Oc3ccc(NC(=O)Nc4cc(C(C)(C)C)cc(NS(C)(=O)=O)c4OC)c4ccccc34)n2)cc(OCCOCCOCCC(=O)O)c1 [Example 30, 3-(2-(2-(3-((4-((4-(3-(5-(tert-Butyl)-2-methoxy-3-(methylsulfonamido)phenyl)ureido)-naphthalen-1-yl)oxy)pyrimidin-2-yl)amino)-5-methoxyphenoxy)ethoxy)ethoxy)propanoic acid] | 5.7
COc1cc(Nc2nccc(Oc3ccc(NC(=O)Nc4cc(C(C)(C)C)cc(NS(C)(=O)=O)c4OC)c4ccccc34)n2)cc(OCCOCCC(=O)O)c1 [Example 31, 3-(2-(3-((4-((4-(3-(5-(tert-Butyl)-2-methoxy-3-(methylsulfonamido)phenyl)ureido)-naphthalen-1-yl)oxy)pyrimidin-2-yl)amino)-5-methoxyphenoxy)ethoxy)propanoic acid] | 7.2
CNC(=O)c1cc(N2CCOCC2)cc(NC(=O)Nc2ccc(Oc3ccnc(Nc4cc(OC)cc(OCCOCCOCCOC)c4)n3)c3ccccc23)c1OC [Example 32, 2-Methoxy-3-(3-(4-((2-((3-methoxy-5-(2-(2-(2-methoxyethoxy)ethoxy)ethoxy)phenyl)-amino)pyrimidin-4-yl)oxy)naphthalen-1-yl)ureido)-N-methyl-5-morpholinobenzamide] | 7.7
COCCOCCOCCOc1cc(Nc2nccc(Oc3ccc(NC(=O)Nc4cc(C(C)(C)C)cc(C(=O)NC5CC5)c4OC)c4ccccc34)n2)cc(OC)c1 [Example 33, 5-(tert-Butyl)-N-cyclopropyl-2-methoxy-3-(3-(4-((2-((3-methoxy-5-(2-(2-(2-methoxy-ethoxy)ethoxy)ethoxy)phenyl)amino)pyrimidin-4-yl)oxy)naphthalen-1-yl)ureido)-benzamide] | 4.2
COCCOCCOCCOc1cc(Nc2nccc(Oc3ccc(NC(=O)Nc4cc(C(C)(C)C)cc(C(=O)NCc5ccccc5)c4OC)c4ccccc34)n2)cc(OC)c1 [Example 38, N-Benzyl-5-(tert-butyl)-2-methoxy-3-(3-(4-((2-((3-methoxy-5-(2-(2-(2-methoxyethoxy)-ethoxy)ethoxy)phenyl)amino)pyrimidin-4-yl)oxy)naphthalen-1-yl)ureido)benzamide] | 6.3
COCCOCCOCCOCCOCCOCCOCCNC(=O)c1cc(Nc2nccc(Oc3ccc(NC(=O)Nc4cc(C(C)(C)C)cc(NS(C)(=O)=O)c4OC)c4ccccc34)n2)cc(OC)c1 [Example 40, 3-((4-((4-(3-(5-(tert-Butyl)-2-methoxy-3-(methylsulfonamido)phenyl)ureido)naphthalen-1-yl)oxy)pyrimidin-2-yl)amino)-N-(2,5,8,11,14,17,20-heptaoxadocosan-22-yl)-5-methoxy-benzamide] | 3.1
CCNC(=O)c1cc(C(C)(C)C)cc(NC(=O)Nc2ccc(Oc3ccnc(Nc4cc(OC)cc(OCCOCCOCCOC)c4)n3)c3ccccc23)c1OC [Example 41] | 4.5
COCCOCCOCCOc1cc(Nc2nccc(Oc3ccc(NC(=O)Nc4cc(C(C)(C)C)cc(C(=O)NC(C)C)c4OC)c4ccccc34)n2)cc(OC)c1 [Example 42, 5-(tert-Butyl)-N-isopropyl-2-methoxy-3-(3-(4-((2-((3-methoxy-5-(2-(2-(2-methoxyethoxy)-ethoxy)ethoxy)phenyl)amino)pyrimidin-4-yl)ox)naphthalen-1-yl)ureido)benzamide] | 6.6
COCCNC(=O)c1cc(C(C)(C)C)cc(NC(=O)Nc2ccc(Oc3ccnc(Nc4cc(OC)cc(OCCOCCOCCOC)c4)n3)c3ccccc23)c1OC [Example 43, 5-(tert-Butyl)-2-methoxy-3-(3-(4-((2-((3-methoxy-5-(2-(2-(2-methoxyethoxy)ethoxy)-ethoxy)phenyl)amino)pyrimidin-4-yl)oxy)naphthalen-1-yl)ureido)-N-(2-methoxyethyl)-benzamide] | 2
COCCOCCOCCOc1cc(Nc2nccc(Oc3ccc(NC(=O)Nc4cc(C(C)(C)C)cc(C(=O)NCC(=O)O)c4OC)c4ccccc34)n2)cc(OC)c1 [Example 44, 2-(5-(tert-Butyl)-2-methoxy-3-(3-(4-((2-((3-methoxy-5-(2-(2-(2-methoxyethoxy)ethoxy)-ethoxy)phenyl)amino)pyrimidin-4-yl)oxy)naphthalen-1-yl)ureido)benzamido)acetic acid] | 86.8
